Here are results for nine compounds from publication PMC8487040, “Detection of juvenile hormone agonists by a new reporter gene assay using yeast expressing Drosophila methoprene‐tolerant” (FEBS Open Bio, 2021).

Each structure is given as a SMILES string.

The target in the first experiment is T1, Met–Tai (D. melanogaster Met co-expressed with Tai) (Drosophila melanogaster, UniProt Q9VYW2, T103P).
T1 construct: full-length Met ORF (codon 103 CCC, Pro); heterodimer; with Taiman
T1 sequence (Q9VYW2 1-716 T103P): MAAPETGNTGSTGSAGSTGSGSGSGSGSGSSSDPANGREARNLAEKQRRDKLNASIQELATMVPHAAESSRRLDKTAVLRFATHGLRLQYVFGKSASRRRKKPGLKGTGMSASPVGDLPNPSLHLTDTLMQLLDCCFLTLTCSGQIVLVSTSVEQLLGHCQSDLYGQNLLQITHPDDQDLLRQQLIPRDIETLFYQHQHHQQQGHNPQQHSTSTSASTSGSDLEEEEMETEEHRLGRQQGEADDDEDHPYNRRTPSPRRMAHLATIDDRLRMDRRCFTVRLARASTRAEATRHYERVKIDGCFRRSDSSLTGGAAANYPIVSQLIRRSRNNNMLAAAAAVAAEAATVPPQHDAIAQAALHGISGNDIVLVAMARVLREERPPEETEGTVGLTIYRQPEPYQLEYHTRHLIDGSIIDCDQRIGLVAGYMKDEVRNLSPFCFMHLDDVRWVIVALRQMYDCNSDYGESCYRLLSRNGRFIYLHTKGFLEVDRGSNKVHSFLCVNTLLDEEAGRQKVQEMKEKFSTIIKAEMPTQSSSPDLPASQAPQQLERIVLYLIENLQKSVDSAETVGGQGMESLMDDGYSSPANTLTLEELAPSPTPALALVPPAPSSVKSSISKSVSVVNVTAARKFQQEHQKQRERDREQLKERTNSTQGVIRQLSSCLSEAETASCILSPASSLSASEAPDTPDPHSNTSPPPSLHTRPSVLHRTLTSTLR
T1 sequence (Q9VLD9 1-2026 partner): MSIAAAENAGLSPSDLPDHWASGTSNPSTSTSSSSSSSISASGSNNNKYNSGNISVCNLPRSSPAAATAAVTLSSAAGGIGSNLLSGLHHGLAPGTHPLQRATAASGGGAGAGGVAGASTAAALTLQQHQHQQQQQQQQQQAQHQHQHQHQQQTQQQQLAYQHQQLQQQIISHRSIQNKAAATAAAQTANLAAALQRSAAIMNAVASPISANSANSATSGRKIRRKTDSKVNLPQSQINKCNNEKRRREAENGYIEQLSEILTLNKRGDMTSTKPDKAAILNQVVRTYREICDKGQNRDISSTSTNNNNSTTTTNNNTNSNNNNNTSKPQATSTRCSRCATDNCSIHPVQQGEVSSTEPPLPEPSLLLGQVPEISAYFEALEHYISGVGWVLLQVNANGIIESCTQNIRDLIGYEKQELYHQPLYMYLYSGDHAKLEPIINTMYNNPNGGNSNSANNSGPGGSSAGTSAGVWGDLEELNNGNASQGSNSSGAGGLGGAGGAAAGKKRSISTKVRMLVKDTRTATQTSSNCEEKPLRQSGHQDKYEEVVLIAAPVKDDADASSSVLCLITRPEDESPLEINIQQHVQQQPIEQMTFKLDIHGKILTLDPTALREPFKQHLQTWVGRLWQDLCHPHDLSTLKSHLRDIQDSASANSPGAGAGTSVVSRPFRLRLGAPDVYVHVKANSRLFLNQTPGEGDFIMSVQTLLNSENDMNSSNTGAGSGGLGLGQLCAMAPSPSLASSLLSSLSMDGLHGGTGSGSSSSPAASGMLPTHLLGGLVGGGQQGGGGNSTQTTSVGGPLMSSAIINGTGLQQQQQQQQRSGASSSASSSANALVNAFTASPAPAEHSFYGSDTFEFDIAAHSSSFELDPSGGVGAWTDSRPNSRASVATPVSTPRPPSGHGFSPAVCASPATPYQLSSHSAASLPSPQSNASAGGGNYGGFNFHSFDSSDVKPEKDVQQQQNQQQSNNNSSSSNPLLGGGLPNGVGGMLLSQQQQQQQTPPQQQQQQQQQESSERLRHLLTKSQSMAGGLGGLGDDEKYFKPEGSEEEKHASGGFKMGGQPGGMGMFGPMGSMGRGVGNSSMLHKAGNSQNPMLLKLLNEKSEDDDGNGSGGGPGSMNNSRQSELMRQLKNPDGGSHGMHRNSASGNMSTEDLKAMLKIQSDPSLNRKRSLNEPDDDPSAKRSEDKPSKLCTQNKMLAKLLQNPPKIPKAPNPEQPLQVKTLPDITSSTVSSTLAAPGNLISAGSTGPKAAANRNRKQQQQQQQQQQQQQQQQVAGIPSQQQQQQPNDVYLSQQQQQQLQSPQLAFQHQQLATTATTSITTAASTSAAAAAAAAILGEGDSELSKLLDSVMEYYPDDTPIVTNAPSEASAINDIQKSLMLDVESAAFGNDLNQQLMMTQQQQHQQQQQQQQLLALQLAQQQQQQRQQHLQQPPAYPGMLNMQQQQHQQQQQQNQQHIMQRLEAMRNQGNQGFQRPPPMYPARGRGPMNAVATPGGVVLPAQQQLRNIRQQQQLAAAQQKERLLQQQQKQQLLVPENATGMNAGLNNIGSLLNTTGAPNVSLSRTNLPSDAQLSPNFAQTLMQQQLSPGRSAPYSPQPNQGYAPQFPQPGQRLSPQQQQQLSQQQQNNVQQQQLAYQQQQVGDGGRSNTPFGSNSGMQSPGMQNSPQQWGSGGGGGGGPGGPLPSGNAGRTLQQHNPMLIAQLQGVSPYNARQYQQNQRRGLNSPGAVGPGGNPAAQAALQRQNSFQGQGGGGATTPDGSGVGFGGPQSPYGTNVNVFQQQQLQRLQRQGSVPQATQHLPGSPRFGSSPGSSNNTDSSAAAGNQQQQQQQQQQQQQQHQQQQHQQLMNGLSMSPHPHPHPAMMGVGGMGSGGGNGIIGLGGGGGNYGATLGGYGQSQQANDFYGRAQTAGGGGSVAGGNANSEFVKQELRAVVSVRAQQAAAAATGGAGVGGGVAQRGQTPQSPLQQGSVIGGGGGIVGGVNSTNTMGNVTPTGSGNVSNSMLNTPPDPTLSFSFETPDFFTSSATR
Put plainly: yeast lacZ reporter gene assay (beta-galactosidase, ONPG). It counts as cell-based.
Details: not given
An excerpt: yeast lacZ reporter gene assay (beta-galactosidase, ONPG) on Met–Tai (D. melanogaster Met co-expressed with Tai)
In general terms: Reporter assays use an easily measured gene product as a stand-in for the process of interest.
In general, EC50 refers to the concentration that produces a half-maximal response. Low values mean a more potent agent, high ones a less potent agent. `CCOC(=O)/C=C(C)/C=C/C[C@@H](C)CCCC(C)C` [(S)‐hydroprene] had an EC50 of 570 ± 150 nM.

Regarding `CCOC(=O)NCCOc1ccc(Oc2ccccc2)cc1` [Fenoxycarb], the EC50 was found to be 3 ± 1 nM.

Compound `CC/C(=C\C(=O)OC)CC/C=C(\CC)CC[C@H]1O[C@@]1(C)CC` [JH 0] came in with an EC50 of 213 ± 14 nM.

`COC(=O)/C=C(\C)CC/C=C(\C)CC[C@H]1OC1(C)C` [JH III] had an EC50 of 62 ± 5 nM.

Regarding `CC[C@]1(C)O[C@@H]1CC/C(C)=C/CC/C(C)=C/C(=O)OC` [JH II], the EC50 turned out to be 50 ± 17 nM.

Regarding `CC/C(=C\CC/C(C)=C/C(=O)OC)CC[C@H]1O[C@@]1(C)CC` [JH I], a half-maximal response (EC50) required 65 ± 11 nM.

Take `COC(C)(C)CCCC(C)C/C=C/C(C)=C/C(=O)OC(C)C` (stereo not drawn) [Methoprene]: the EC50 was 1100 ± 230 nM.

`COC(=O)/C=C(\C)CC/C=C(\C)CCC=C(C)C` [Methyl farnesoate] had an EC50 of 160 ± 7 nM.

Staying with this experiment, now noted: agonist; 30 °C, 18 h; Tai co-expressed; BmkJHRE x 2 reporter.
In turn, `CC(COc1ccc(Oc2ccccc2)cc1)Oc1ccccn1` (stereo not drawn) [Pyriproxyfen] came in with an EC50 of 87 ± 12 nM.
